Consider 21 compounds from patent publication US8022218B2, “4-phenyl-5-oxo-1,4,5,6,7,8-hexahydroquinoline derivatives for the treatment of infertility” (N.V. Organon, priority 2005, dated 2011).

pEC50: −log10 of the molar value. Bounds are passed on as bounds.

The assay has as its target T1, human FSH receptor (Homo sapiens, UniProt P23945).
T1 construct: expressed in transfected cells; host or cells: Chinese Hamster Ovary (CHO) cells
T1 sequence (P23945 18-695): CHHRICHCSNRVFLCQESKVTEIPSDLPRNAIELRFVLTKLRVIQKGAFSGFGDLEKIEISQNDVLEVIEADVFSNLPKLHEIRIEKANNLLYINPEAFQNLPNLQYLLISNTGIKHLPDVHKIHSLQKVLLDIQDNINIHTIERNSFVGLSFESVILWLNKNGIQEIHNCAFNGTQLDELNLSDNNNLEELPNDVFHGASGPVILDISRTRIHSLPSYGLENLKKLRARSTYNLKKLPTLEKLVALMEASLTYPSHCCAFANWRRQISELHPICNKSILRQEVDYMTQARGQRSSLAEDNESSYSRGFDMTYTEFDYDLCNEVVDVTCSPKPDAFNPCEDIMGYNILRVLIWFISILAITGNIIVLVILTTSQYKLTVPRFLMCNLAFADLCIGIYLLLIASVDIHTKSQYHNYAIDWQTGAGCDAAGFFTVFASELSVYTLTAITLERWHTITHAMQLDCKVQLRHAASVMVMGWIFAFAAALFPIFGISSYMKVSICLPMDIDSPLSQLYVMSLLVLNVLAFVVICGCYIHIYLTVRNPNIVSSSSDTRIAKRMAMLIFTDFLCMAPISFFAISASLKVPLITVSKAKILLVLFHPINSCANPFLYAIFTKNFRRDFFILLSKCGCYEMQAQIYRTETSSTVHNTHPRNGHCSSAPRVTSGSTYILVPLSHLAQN
The assay can be described thus: Agonistic activity at the human FSH receptor expressed in CHO cells (CRE-luciferase reporter). It counts as cell-based. As to conditions: CHO cells stably transfected with human FSH receptor and CRE/luciferase reporter; tested 0.1 nM to 10 μM; read-out: EC50 (concentration of test compound causing half-maximal (50%) luciferase stimulation). Here is the method:
Agonistic Activity of Compounds at the Human FSH Receptor Expressed in CHO Cells
Agonist activity of the compounds at the human FSH receptor was tested in Chinese Hamster Ovary (CHO) cells stably transfected with the human FSH receptor and cotransfected with a cAMP responsive element (CRE)/promotor directing the expression of a firefly luciferase reporter gene. Binding of the compound to the Gscoupled FSH receptor will result in an increase of cAMP, which in turn will induce an increased transactivation of the luciferase reporter construct. The luciferase activity was quantified using a luminescence counter. The compounds were tested in the concentration range of 0.1 nM to 10 μM. This assay was used to determine the EC50 (concentration of test compound causing half-maximal (50%) luciferase stimulation) and efficacy of the compounds compared to recombinant human FSH. For this, the software program XLfit (Excel version 2.0, built 30, ID Business Solutions Limited) was used.
With `CCCC1CC(=O)C2=C(C1)NC(C)=C(C#N)C2c1cc(Br)c(NCc2ccccc2NS(C)(=O)=O)c(OCC)c1` (stereo not drawn) [Example 58, N-(2-{[2-Bromo-4-(3-cyano-2-methyl-5-oxo-7-propyl-1,4,5,6,7,8-hexahydro-quinolin-4-yl)-6-ethoxy-phenylamino]-methyl}-phenyl)-methanesulfonamide], the pEC50 was greater than 8.00.
With `CCCC1CC(=O)C2=C(C1)NC(C)=C(C#N)C2c1cc(Br)c(NCc2cccnc2)c(OCC)c1` (stereo not drawn) [Example 56, 4-{3-Bromo-5-ethoxy-4-[(pyridin-3-ylmethyl)-amino]-phenyl}-2-methyl-5-oxo-7-propyl-1,4,5,6,7,8-hexahydro-quinoline-3-carbonitrile] the figure was greater than 8.00; with `CCCC1CC(=O)C2=C(C1)NC(C)=C(C#N)C2c1cc(Br)c(OCc2cccn2S(C)(=O)=O)c(OCC)c1` (stereo not drawn) [Example 51, 4-[3-Bromo-5-ethoxy-4-(1-methanesulfonyl-1H-pyrrol-2-ylmethoxy)-phenyl]-2-methyl-5-oxo-7-propyl-1,4,5,6,7,8-hexahydro-quinoline-3-carbonitrile], greater than 8.00; with `CCCC1CC(=O)C2=C(C1)NC(C)=C(C#N)C2c1cc(Br)c(OCc2ccccc2NC(=O)OC)c(OCC)c1` (stereo not drawn) [Example 25], greater than 8.00.
The value for `C=CCOC(=O)Nc1ccc(COc2c(Br)cc(C3C(C#N)=C(C)NC4=C3C(=O)CC(CCC)C4)cc2OCC)cc1` (stereo not drawn) [Example 50, {4-[2-Bromo-4-(3-cyano-2-methyl-5-oxo-7-propyl-1,4,5,6,7,8-hexahydro-quinolin-4-yl)-6-ethoxy-phenoxymethyl]-phenyl}-carbamic acid allyl ester] was greater than 8.00.
`CCCC1CC(=O)C2=C(C1)NC(C)=C(C#N)C2c1cc(Br)c(OCc2cccc(NC(=O)CNCc3ccncc3)c2)c(OCC)c1` (stereo not drawn) [Example 3, N-{3-[2-Bromo-4-(3-cyano-2-methyl-5-oxo-7-propyl-1,4,5,6,7,8-hexahydro-quinolin-4-yl)-6-ethoxy-phenoxymethyl]-phenyl}-2-[(pyridin-4-ylmethyl)-amino]-acetamide]: the pEC50 was greater than 8.00.
With `CCCC1CC(=O)C2=C(C1)NC(C)=C(C#N)C2c1cc(Br)c(OCc2ccccc2NC(=O)c2ccco2)c(OCC)c1` (stereo not drawn) [Example 22, Furan-2-carboxylic acid {2-[2-bromo-4-(3-cyano-2-methyl-5-oxo-7-propyl-1,4,5,6,7,8-hexahydro-quinolin-4-yl)-6-ethoxy-phenoxymethyl]-phenyl}-amide] the figure was greater than 8.00; with `CCCC1CC(=O)C2=C(C1)NC(C)=C(C#N)C2c1cc(Br)c(OCc2cccnc2NC(=O)OC)c(OCC)c1` (stereo not drawn) [Example 38, {3-[2-Bromo-4-(3-cyano-2-methyl-5-oxo-7-propyl-1,4,5,6,7,8-hexahydro-quinolin-4-yl)-6-ethoxy-phenoxymethyl]-pyridin-2-yl}-carbamic acid methyl ester], greater than 8.00; with `CCCC1CC(=O)C2=C(C1)NC(C)=C(C#N)C2c1cc(Br)c(OCc2cccc(NC(=O)c3cc(OC)c(OC)c(OC)c3)c2)c(OCC)c1` (stereo not drawn) [Example 1, N-{3-[2-Bromo-4-(3-cyano-2-methyl-5-oxo-7-propyl-1,4,5,6,7,8-hexahydro-quinolin-4-yl)-6-ethoxy-phenoxymethyl]-phenyl}-3,4,5-trimethoxy-benzamide], greater than 8.00.
With `CCCC1CC(=O)C2=C(C1)NC(C)=C(C#N)C2c1cc(Br)c(OCc2ccc(C(=N)NC)cc2)c(OCC)c1` (stereo not drawn) [Example 54, 4-[2-Bromo-4-(3-cyano-2-methyl-5-oxo-7-propyl-1,4,5,6,7,8-hexahydro-quinolin-4-yl)-6-ethoxy-phenoxymethyl]-N-methyl-benzamidine] the figure was greater than 8.00.
With `CCCC1CC(=O)C2=C(C1)NC(C)=C(C#N)C2c1cc(Br)c(OCc2ccccc2NCC2CC2)c(OCC)c1` (stereo not drawn) [Example 62, 4-{3-Bromo-4-[2-(cyclopropylmethyl-amino)-benzyloxy]-5-ethoxy-phenyl}-2-methyl-5-oxo-7-propyl-1,4,5,6,7,8-hexahydro-quinoline-3-carbonitrile] the figure was greater than 8.00; with `CCCC1CC(=O)C2=C(C1)NC(C)=C(C#N)C2c1cc(Br)c(OCc2cccc(OCC(=O)N(C)C)c2)c(OCC)c1` (stereo not drawn) [Example 15, 2-{3-[2-Bromo-4-(3-cyano-2-methyl-5-oxo-7-propyl-1,4,5,6,7,8-hexahydro-quinolin-4-yl)-6-ethoxy-phenoxymethyl]-phenoxy}-N,N-dimethyl-acetamide], greater than 8.00.
Take `CCC[C@@H]1CC(=O)C2=C(C1)NC(C)=C(C#N)[C@H]2c1cc(Br)c(OCc2cc(F)c(F)cc2NS(C)(=O)=O)c(OCC)c1` [Example 72, N-{2-[2-Bromo-4-((4R,7S)-3-cyano-2-methyl-5-oxo-7-propyl-1,4,5,6,7,8-hexahydro-quinolin-4-yl)-6-ethoxy-phenoxymethyl]-4,5-difluoro-phenyl}-methanesulfonamide]: the pEC50 was greater than 8.00.
The value for `CCCC1CC(=O)C2=C(C1)NC(C)=C(C#N)C2c1cc(Br)c(OCc2ccccc2NC(=O)C2CC2)c(OCC)c1` (stereo not drawn) [Example 24, Cyclopropanecarboxylic acid {2-[2-bromo-4-(3-cyano-2-methyl-5-oxo-7-propyl-1,4,5,6,7,8-hexahydro-quinolin-4-yl)-6-ethoxy-phenoxymethyl]-phenyl}-amide] was greater than 8.00.
The value for `CCCC1CC(=O)C2=C(C1)NC(C)=C(C#N)C2c1cc(Br)c(OCc2cccc(NC(=O)CCN(CCOC)CCOC)c2)c(OCC)c1` (stereo not drawn) [Example 11, 3-[Bis-(2-methoxy-ethyl)-amino]-N-{3-[2-bromo-4-(3-cyano-2-methyl-5-oxo-7-propyl-1,4,5,6,7,8-hexahydro-quinolin-4-yl)-6-ethoxy-phenoxymethyl]-phenyl}-propionamide] was greater than 8.00; that for `C=CC(=O)Nc1ccccc1COc1c(Br)cc(C2C(C#N)=C(C)NC3=C2C(=O)CC(CCC)C3)cc1OCC` (stereo not drawn) [Example 23, N-{2-[2-Bromo-4-(3-cyano-2-methyl-5-oxo-7-propyl-1,4,5,6,7,8-hexahydro-quinolin-4-yl)-6-ethoxy-phenoxymethyl]-phenyl}-acrylamide] was greater than 8.00.
With `CCCC1CC(=O)C2=C(C1)NC(C)=C(C#N)C2c1cc(Br)c(OCc2cccc(OCC(=O)N3CCOCC3)c2)c(OCC)c1` (stereo not drawn) [Example 17, 4-{3-Bromo-5-ethoxy-4-[3-(2-morpholin-4-yl-2-oxo-ethoxy)-benzyloxy]-phenyl}-2-methyl-5-oxo-7-propyl-1,4,5,6,7,8-hexahydro-quinoline-3-carbonitrile] the figure was greater than 8.00.
For `CCCC1CC(=O)C2=C(C1)NC(C)=C(C#N)C2c1cc(Br)c(OCc2ccccc2NC(=O)NC)c(OCC)c1` (stereo not drawn) [Example 34, 1-{2-[2-Bromo-4-(3-cyano-2-methyl-5-oxo-7-propyl-1,4,5,6,7,8-hexahydro-quinolin-4-yl)-6-ethoxy-phenoxymethyl]-phenyl}-3-methyl-urea], the pEC50 was greater than 8.00.
Turning to `CCCC1CC(=O)C2=C(C1)NC(C)=C(C#N)C2c1cc(Br)c(OCc2cccc(NS(C)(=O)=O)c2)c(OCC)c1` (stereo not drawn) [Example 42, N-{3-[2-Bromo-4-(3-cyano-2-methyl-5-oxo-7-propyl-1,4,5,6,7,8-hexahydro-quinolin-4-yl)-6-ethoxy-phenoxymethyl]-phenyl}-methanesulfonamide], the pEC50 is greater than 8.00.
The value for `CCCC1CC(=O)C2=C(C1)NC(C)=C(C#N)C2c1cc(Br)c(OCc2cccc(NC(=O)CN3CCN(CCO)CC3)c2)c(OCC)c1` (stereo not drawn) [Example 5, N-{3-[2-Bromo-4-(3-cyano-2-methyl-5-oxo-7-propyl-1,4,5,6,7,8-hexahydro-quinolin-4-yl)-6-ethoxy-phenoxymethyl]-phenyl}-2-[4-(2-hydroxy-ethyl)-piperazin-1-yl]-acetamide] was greater than 8.00.
The value for `CCCC1CC(=O)C2=C(C1)NC(C)=C(C#N)C2c1cc(Br)c(OCc2cccc(C(=O)N3CC=CCC3)c2)c(OCC)c1` (stereo not drawn) [Example 7, 4-{3-Bromo-4-[3-(3,6-dihydro-2H-pyridine-1-carbonyl)-benzyloxy]-5-ethoxy-phenyl}-2-methyl-5-oxo-7-propyl-1,4,5,6,7,8-hexahydro-quinoline-3-carbonitrile] was greater than 8.00.
